These results are taken from US6410041B1, “Culturing cells in presence of amphipathic weak bases and/or cations and multiple drug resistance inhibitor containing reserpine” (priority 1998, dated 2002).

The structures appear in SMILES notation. Converted amounts (≈) assume the structure as drawn. “And” between values parts separate entries of the source, which are not always exact repeats. Identical values can stand only once. Like-named read-outs stand apart in the source and are kept apart here.

The subject of assay [1] is S. aureus. Put plainly: MICs of antimicrobials with small molecule MDR inhibitor (I) and high pH. The following applies: for Potentiation factor (pH 7/(pH 9 + I)): pH 7 vs pH 9 + I. The class given is cell-based, Staphylococcus aureus. Here is the method: (§1) Determination of minimal inhibitory concentrations (MICs). MICs were determined by serial two-fold dilution of antimicrobials in Mueller-Hinton broth containing chloramphenicol ([…]). […] Around 10^5 cells were inoculated in 1 ml of medium for the test. MICs were read after 18 hours of incubation at 37 C. with aeration. The 50% inhibitory concentration (IC50) was determined by growing cells in microtiter plate wells and reading the optical density after overnight growth at 650 nm.

Assay [2] concerns Staphylococcus aureus RN 4222 (WT). In words: MIC determination in wild type S. aureus. Type of assay: cell-based. Here is the method: as §1
For assay [3], the system named is Staphylococcus aureus KLE 820 (norA−). Put plainly: microbe, parasite or virus in culture. The class given is cell-based.
Description: Disruption of the norA gene. Chloramphenicol acetyltransferase (CAT) gene was isolated by digesting plasmid pLI50 (10) with Sau3A (New England Biolabs). The CAT gene was cloned into the BamHI site of plasmid pSP72 (Promega) to yield plasmid PCH22. Chromosomal DNA from S. aureus RN4220 was isolated according to the protocol of Qiagen, Inc. Part of the 1050 bp norA gene lacking a 80 bp N-terminus and a 20 bp C-terminus was PCR-amplified from chromosomal DNA using primer A:5′-[…]-[…] and primer B:5′-[…]. This fragment was cloned into the EcoRI/EcoRV site of PCH22 to yield plasmid PCH23. S. aureus were transformed by PCH23 using electroporation (11). Cells were plated on trypticase soy agar (TSA) with chloramphenicol. A transformant colony was picked after 24 hours of incubation at 37 C., regrown, plated on CAM medium and a large colony was picked for further work.
as §1

As for `N=C(N)c1ccc(OCCCCCOc2ccc(C(=N)N)cc2)cc1` [Pentamidine], the MIC in assay [1] (Staphylococcus aureus, pH 7, read-out: MIC) came to 10 µg/mL (≈ 29.4 µM); in assay [1] (Staphylococcus aureus, pH 9, read-out: MIC) it was 0.3 µg/mL (≈ 0.881 µM); in assay [1] (pH 7 + I (10 μg/mL)), 0.33 µg/mL; in assay [1] (pH 9 + I), 0.02 µg/mL; in assay [2] (Staphylococcus aureus, pH 9), 0.312 µg/mL (≈ 0.918 µM); in assay [2] (Staphylococcus aureus, RN 4222 (WT), pH 7.2, read-out: MIC) it was 10 µg/mL (≈ 29.4 µM). In addition, the MIC was 0.312 µg/mL (≈ 0.918 µM) in assay [3] (Staphylococcus aureus, pH 7.2, KLE 820 (norA−), pH 7.2); 0.0097 µg/mL (≈ 0.0285 µM) in assay [3] (Staphylococcus aureus, pH 9, KLE 820 (norA−), pH 9); 0.01 µg/mL (≈ 0.0294 µM) in assay [3] (Staphylococcus aureus, pH 9, pH 9 and norA mutation). Also, the “Potentiation factor (pH 7/(pH 9 + I))” value in assay [1] is given as 500. In addition, the “effect of pH 9 on sensitivity / effectiveness” value in assay [2] (change of pH from 7 to 9) is recorded as “significantly increased the effectiveness”. Further, in assay [3] (norA− at pH 9 vs wild type at neutral pH), the “increase in sensitivity, pH 9 combined with norA mutation” value was 1,000 fold. The “increase in sensitivity by norA mutation” value in assay [3] (norA− vs wild type) is 30 fold and 33 fold.
Regarding `COc1cc2c(cc1OC)-c1cc3ccc(OC)c(OC)c3c[n+]1CC2` [Palmatine], the “substrate of MDR pumps” value in assay [1] (cationic plant antimicrobial alkaloids) was “good substrates of MDR pumps”. Besides, the MIC worked out at 100 µg/mL in assay [1] (pH 7); 1.6 µg/mL in assay [1] (pH 7 + I (10 μg/mL)); 25 µg/mL in assay [1] (pH 9); 0.08 µg/mL in assay [1] (pH 9 + I); 200 µg/mL in assay [2] (RN 4222 (WT), pH 7.2); 12.5 µg/mL in assay [2] (RN 4222 (WT), pH 9). The MIC in assay [3] (KLE 820 (norA−), pH 7.2) was 50 µg/mL; in assay [3] (KLE 820 (norA−), pH 9), 0.78 µg/mL. In addition, in assay [1], the “Potentiation factor (pH 7/(pH 9 + I))” value is on record as 1,250. The “substrate of NorA” value in assay [3] (based on comparison of MIC from wild type and norA−) was “substrates of NorA”.
